According to patent publication EP4273147A1, “SUBSTITUTED SPIROLACTAMS, SALTS THEREOF AND THEIR USE AS HERBICIDALLY ACTIVE SUBSTANCES” (Bayer Aktiengesellschaft, priority 2022, dated 2023):

Legend:
DIGSA [1] = experiment: Herbicidal pre-emergence action (Table A12); assay type: in vivo, Digitaria sanguinalis; settings: application rate 320 g/ha; visual grading after ca. 3 weeks
Outline: (§1)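 Sown in sandy loam in pots and covered with soil: weed seeds, two species per pot, one of each plant class (mono- and dicotyledonous).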

DIGSA [2] = experiment: Herbicidal pre-emergence action, section C (Table C5); assay type: in vivo, Digitaria sanguinalis; settings: application rate 320 g/ha; visual grading after ca. 3 weeks
ORYZA [3] = experiment: Pre-emergence effects on crop plants (Table D3); settings: crop plant, visual grading after ca. 3 weeks
Text: (§5) Seeds of mono- and dicotyledonous weed plants and crop plants were sown, in plastic or organic planting pots, in sandy loam and covered with soil. The compounds according to the invention, formulated in the form of wettable powders (WP) or as emulsifiable concentrates (EC), were applied to the surface of the covering soil as aqueous suspension or emulsion, with the addition of 0.5% of an additive, at an application rate of 600 1 of water/ha (converted).
(§6) Following treatment, the pots were placed in a greenhouse and kept under optimum growth conditions for the test plants.

VIOTR = experiment: Herbicidal pre-emergence action, section C (Table C12); assay type: in vivo, Viola tricolor; settings: application rate 320 g/ha; visual grading after ca. 3 weeks
ABUTH [4] = experiment: Herbicidal pre-emergence action (Table A1); assay type: in vivo, Abutilon theophrasti; settings: application rate 1280 g/ha; visual grading after ca. 3 weeks vs untreated controls (100% = plants have died off, 0% = as control plants)
Outline: as §1

LOLRI [5] = experiment: Herbicidal pre-emergence action, section C (Table C7); assay type: in vivo, Lolium rigidum; settings: application rate 320 g/ha; visual grading after ca. 3 weeks
Text: Seeds of mono- and dicotyledonous weed plants and crop plants were sown, in plastic or organic planting pots, in sandy loam and covered with soil. The compounds according to the invention, formulated in the form of wettable powders (WP) or as emulsifiable concentrates (EC), were applied to the surface of the covering soil as aqueous suspension or emulsion, with the addition of 0.5% of an additive, at an application rate of 600 1 of water/ha (converted). Following treatment, the pots were placed in a greenhouse and kept under optimum growth conditions for the test plants.

ECHCG [6] = experiment: Herbicidal pre-emergence action, section C (Table C6); assay type: in vivo, Echinochloa crus-galli; settings: application rate 80 g/ha; visual grading after ca. 3 weeks
ORYZA [7] = experiment: Post-emergence effects on crop plants (Table F3); assay type: in vivo, Oryza sativa; settings: application rate 320 g/ha, crop plant ORYZA
Text: (§2) 2 to 3 weeks after sowing, the test plants were sprayed in the single-leaf stage.

ZEAMX [8] = experiment: Pre-emergence effects on crop plants (Table D1); assay type: in vivo, Zea mays; settings: crop plant; application rate 80 g/ha; visual grading after ca. 3 weeks
Text: as §5, §6

SETVI [9] = experiment: Herbicidal pre-emergence action, section C (Table C10); assay type: in vivo, Setaria viridis; settings: application rate 320 g/ha; visual grading after ca. 3 weeks
VERPE [10] = experiment: Herbicidal pre-emergence action (Table A11); assay type: in vivo, Veronica persica; settings: application rate 1280 g/ha; visual grading after ca. 3 weeks
Outline: as §1

SETVI [11] = experiment: Herbicidal pre-emergence action (Table A5); assay type: in vivo, Setaria viridis; settings: application rate 320 g/ha; visual grading after ca. 3 weeks
Outline: as §1

POAAN [12] = experiment: Herbicidal pre-emergence action (Table A7); assay type: in vivo, Poa annua; settings: application rate 320 g/ha; visual grading after ca. 3 weeks
Outline: as §1

VERPE [13] = experiment: Herbicidal pre-emergence action, section C (Table C11); assay type: in vivo, Veronica persica; settings: application rate 320 g/ha; visual grading after ca. 3 weeks
KCHSC = experiment: Herbicidal pre-emergence action (Table A10); assay type: in vivo, Kochia scoparia; settings: application rate 1280 g/ha; visual grading after ca. 3 weeks
Outline: as §1

MATIN [14] = experiment: Herbicidal pre-emergence action (Table A4); assay type: in vivo, Matricaria inodora; settings: application rate 1280 g/ha; visual grading after ca. 3 weeks
Outline: as §1

ECHCG [15] = experiment: Herbicidal pre-emergence action (Table A2); assay type: in vivo, Echinochloa crus-galli; settings: application rate 320 g/ha; visual grading after ca. 3 weeks
Outline: as §1

ALOMY [16] = experiment: Herbicidal pre-emergence action, section C (Table C2); assay type: in vivo, Alopecurus myosuroides; settings: visual grading after ca. 3 weeks
STEME = experiment: Herbicidal pre-emergence action (Table A6); assay type: in vivo, Stellaria media; settings: visual grading after ca. 3 weeks
Outline: as §1

ABUTH [17] = experiment: Herbicidal pre-emergence action, section C (Table C1); assay type: in vivo, Abutilon theophrasti; settings: application rate 320 g/ha; visual grading after ca. 3 weeks
LOLRI [18] = experiment: Herbicidal pre-emergence action (Table A3); assay type: in vivo, Lolium rigidum; settings: application rate 1280 g/ha; visual grading after ca. 3 weeks
Outline: as §1

ECHCG [19] = experiment: Herbicidal post-emergence action (Table B3); assay type: in vivo, Echinochloa crus-galli; settings: application rate 1280 g/ha; rated visually after about 3 weeks
Outline: (§3)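 Greenhouse pot assay, sandy loam soil, one weed species per pot. Application at one-leaf stage. Readout ~3 wk post-treatment: visual % activity, 100 = dead, 0 = as untreated.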

TRZAS [20] = experiment: Post-emergence effects on crop plants (Table F2); assay type: in vivo, Triticum aestivum; settings: crop plant TRZAS
Text: as §2

AMARE = experiment: Herbicidal pre-emergence action (Table A8); assay type: in vivo, Amaranthus retroflexus; settings: application rate 1280 g/ha; visual grading after ca. 3 weeks vs untreated controls (100% = plants have died off, 0% = as control plants)
Text: Seeds of mono- and dicotyledonous weed plants were sown in plastic pots (double sowings with one species of mono- and one species of dicotyledonous weed plants per pot), in sandy loam, and covered with soil.

ZEAMX [21] = experiment: Post-emergence effects on crop plants (Table F1); assay type: in vivo, Zea mays; settings: application rate 320 g/ha, crop plant ZEAMX
Text: as §2

ABUTH [22] = experiment: Herbicidal post-emergence action (Table B1); assay type: in vivo, Abutilon theophrasti; settings: application rate 1280 g/ha; treated at one-leaf stage; rated visually after about 3 weeks vs untreated controls (100% = plants have died, 0% = like control plants)
Experimental: (§4) Seeds of mono- and dicotyledonous weed plants were placed in plastic pots in sandy loam soil (doubly sown with in each case one species of mono- or dicotyledonous weed plants per pot), covered with soil and cultivated in a greenhouse under controlled growth conditions. 2 to 3 weeks after sowing, the test plants were treated at the one-leaf stage. […] After the test plants had been kept in the greenhouse under optimum growth conditions for about 3 weeks, the activity of the preparations was rated visually in comparison to untreated controls. For example, 100% activity = the plants have died, 0% activity = like control plants.

MATIN [23] = experiment: Herbicidal post-emergence action (Table B6); assay type: in vivo, Matricaria inodora; settings: application rate 1280 g/ha; rated visually after about 3 weeks
Experimental: as §4

POAAN [24] = experiment: Herbicidal post-emergence action (Table B7); assay type: in vivo, Poa annua; settings: application rate 320 g/ha
Outline: as §3

TRZAS [25] = experiment: Pre-emergence effects on crop plants (Table D2); assay type: in vivo, Triticum aestivum; settings: crop plant; application rate 80 g/ha; visual grading after ca. 3 weeks
GLXMA = experiment: Post-emergence effects on crop plants (Table F4); assay type: in vivo, Glycine max; settings: application rate 80 g/ha, crop plant GLXMA
Text: as §2

BRSNW [26] = experiment: Pre-emergence effects on crop plants (Table D5); assay type: in vivo, Brassica napus; settings: crop plant; application rate 320 g/ha; visual grading after ca. 3 weeks
BRSNW [27] = experiment: Post-emergence effects on crop plants (Table F5); assay type: in vivo, Brassica napus; settings: application rate 320 g/ha, crop plant BRSNW
Text: as §2

ALOMY [28] = experiment: Herbicidal post-emergence action, section E (Table E2); assay type: in vivo, Alopecurus myosuroides; settings: application rate 320 g/ha; assessed visually after ca. 3 weeks
Text: as §2

## O=C1N(Cc2ccccc2)CCCC12CCN(Cc1cccc(F)c1F)C2=O (racemic) [I-039]
DIGSA [1]
  pre-emergence activity against DIGSA: 100%
DIGSA [2]
  pre-emergence activity against DIGSA: 100%
ORYZA [3]; application rate 80 g/ha
  pre-emergence activity against ORYZA: 20%
VIOTR
  pre-emergence activity against VIOTR: 90%
ABUTH [4]
  pre-emergence activity against ABUTH: 90%
LOLRI [5]
  pre-emergence activity against LOLRI: 90%
ECHCG [6]
  pre-emergence activity against ECHCG: 100%
ORYZA [7]
  post-emergence activity against ORYZA: 0%
ZEAMX [8]
  pre-emergence activity against ZEAMX: 0%
SETVI [9]
  pre-emergence activity against SETVI: 100%
VERPE [10]
  pre-emergence activity against VERPE: 90%
SETVI [11]
  pre-emergence activity against SETVI: 100%
POAAN [12]
  pre-emergence activity against POAAN: 100%
VERPE [13]
  pre-emergence activity against VERPE: 80%
KCHSC
  pre-emergence activity against KCHSC: 90%
MATIN [14]
  pre-emergence activity against MATIN: 90%
ECHCG [15]
  pre-emergence activity against ECHCG: 100%
ALOMY [16]; application rate 320 g/ha
  pre-emergence activity against ALOMY: 100%
STEME; application rate 1280 g/ha
  pre-emergence activity against STEME: 90%
ABUTH [17]
  pre-emergence activity against ABUTH: 90%
LOLRI [18]
  pre-emergence activity against LOLRI: 100%
ECHCG [19]
  post-emergence activity against ECHCG: 90%
TRZAS [20]; application rate 320 g/ha
  post-emergence activity against TRZAS: 0%
AMARE
  pre-emergence activity against AMARE: 90%
ZEAMX [21]
  post-emergence activity against ZEAMX: 20%
ABUTH [22]
  post-emergence activity against ABUTH: 90%

## O=C1N(Cc2cccc(F)c2F)CCCC12CCCN(Cc1cccc(F)c1F)C2=O (racemic) [I-012]
MATIN [23]
  post-emergence activity against MATIN: 90%
ORYZA [3]; application rate 320 g/ha
  pre-emergence activity against ORYZA: 10%
VIOTR
  pre-emergence activity against VIOTR: 80%
POAAN [24]
  post-emergence activity against POAAN: 100%
ABUTH [4]
  pre-emergence activity against ABUTH: 90%
LOLRI [5]
  pre-emergence activity against LOLRI: 100%
TRZAS [25]
  pre-emergence activity against TRZAS: 20%
ECHCG [6]
  pre-emergence activity against ECHCG: 100%
ORYZA [7]
  post-emergence activity against ORYZA: 10%
GLXMA
  post-emergence activity against GLXMA: 0%
BRSNW [26]
  pre-emergence activity against BRSNW: 0%
ZEAMX [8]
  pre-emergence activity against ZEAMX: 20%
SETVI [9]
  pre-emergence activity against SETVI: 100%
SETVI [11]
  pre-emergence activity against SETVI: 100%
POAAN [12]
  pre-emergence activity against POAAN: 100%
VERPE [13]
  pre-emergence activity against VERPE: 80%
MATIN [14]
  pre-emergence activity against MATIN: 90%
BRSNW [27]
  post-emergence activity against BRSNW: 20%
ECHCG [15]
  pre-emergence activity against ECHCG: 100%
ALOMY [16]; application rate 80 g/ha
  pre-emergence activity against ALOMY: 90%
STEME; application rate 320 g/ha
  pre-emergence activity against STEME: 90%
LOLRI [18]
  pre-emergence activity against LOLRI: 100%
TRZAS [20]; application rate 80 g/ha
  post-emergence activity against TRZAS: 0%
ALOMY [28]
  post-emergence activity against ALOMY: 80%
ZEAMX [21]
  post-emergence activity against ZEAMX: 0%
